According to patent US10709705B2, “Aminopyrimidines as ALK inhibitors” (THE REGENTS OF THE UNIVERSITY OF MICHIGAN, priority 2016, dated 2020):

How the values were obtained:
[1] = system: H3122 cells (EML4-ALK); experiment: Cell growth inhibition assay (WST-8), H3122; format: cell-based; conditions: Homo sapiens, NCI-H3122, read-out: H3122 (nM) (EML4-ALK), 50% of cell growth inhibition (IC50), WST-8, versus DMSO control
Experimental: (§1) H3122 and Kappas-299 cells were purchased from American Type Culture Collection (Manassas, Va., USA) and were used within 2 months after initiating from original stocks. All cell lines were cultured as recommended. For cell growth inhibition assay, cells were treated with different concentrations of the tested compounds, diluted from stock to culture media containing a 0.2% DMSO as the final concentration. Cell viability was determined using the WST-8 cell proliferation assay kit (Dojindo Molecular Technologies) according to manufacturer's instructions. Three independent experiments in triplicates were performed.

[2] = molecular target: T1, wild-type human ALK protein (cytoplasmic domain, amino acid 1058-1620) (Homo sapiens, UniProt Q9UM73); experiment: Wild-type ALK kinase inhibition, Lance TR-FRET assay; format: biochemical; conditions: Table 4; target not given; Cpd. No. 5 value equals WT ALK IC50 of Table 5; read-out: Inhibitory activity
T1 construct: The cytoplasmic domain (amino acid 1058-1620) of wild-type human ALK protein; purchased Carna Biosciences, Inc (Japan)
T1 sequence (Q9UM73 1058-1620): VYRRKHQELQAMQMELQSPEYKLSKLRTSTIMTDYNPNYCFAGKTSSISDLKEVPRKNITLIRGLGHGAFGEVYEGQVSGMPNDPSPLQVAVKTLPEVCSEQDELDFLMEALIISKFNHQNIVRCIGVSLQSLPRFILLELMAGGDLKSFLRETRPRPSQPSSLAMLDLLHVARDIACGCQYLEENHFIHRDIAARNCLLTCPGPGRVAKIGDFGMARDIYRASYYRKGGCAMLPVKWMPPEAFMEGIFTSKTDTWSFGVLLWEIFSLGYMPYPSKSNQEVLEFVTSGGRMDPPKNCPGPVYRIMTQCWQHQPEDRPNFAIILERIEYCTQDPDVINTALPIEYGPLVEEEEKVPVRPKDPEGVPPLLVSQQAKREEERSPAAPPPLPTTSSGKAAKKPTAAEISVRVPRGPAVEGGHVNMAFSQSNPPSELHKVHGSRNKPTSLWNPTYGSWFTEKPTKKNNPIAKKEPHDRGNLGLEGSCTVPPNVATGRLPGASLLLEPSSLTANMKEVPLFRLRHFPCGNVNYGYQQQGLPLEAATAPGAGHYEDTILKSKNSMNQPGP
Experimental: The cytoplasmic domain (amino acid 1058-1620) of wild-type human ALK protein expressed as N-terminal GST-fusion protein was purchased from Carna Biosciences, Inc (Japan). Mutated ALK proteins were expressed in SF9 insect cells with N-terminal tags cleaved after purification. Kinase activities of all enzymes were assessed using a Lance® TR-FRET assay kit from Perkin Elmer Life Sciences (Waltham, Mass.). 2.5 μL of compound solution and 5 μL of protein solution were added into a black low volume 384 well microtiter plate which was incubated for 30 minutes with gentle shaking at room temperature, followed by adding 2.5 μL of fluorescently labeled peptide substrate (ULight™-IRS-1 (Tyr983) Peptide) and ATP mixture solution. The kinase reaction was performed in 50 mM HEPES (pH 7.5) with 1 mM EGTA, 1 mM MgCl2, and 2 mM DTT, 0.01% Tween-20 added right before the assay. Final concentrations of ATP, substrates, and DMSO were 100 μM, 20 nM, and 0.5%, respectively. […] Final ALK concentrations were 1 nM, 1 nM, InM, 128 nM, 2 nM, and 4 nM for wild-type, F1174L, L1196M, S1206Y, G1269A, and G1202R, respectively. The reaction was allowed to perform for 90 minutes in dark with gentle shaking at room temperature after which 10 μL of 20 mM EDTA and 2 nM Eu-W1024 anti-phosphotyrosine antibody (PT66) mixture solution in the detection buffer from the manufacturer was added to terminate the reaction and detect the phosphorylation of the peptide substrate. The final mixture was incubated in the dark for 1 hour before the plate was read on a Tecan Infinite M-1000 multi-mode plate reader (Tecan, Durham N.C.) with an excitation wavelength of 320 nm. Emission intensities were measured at both 620 and 665 nm with the intensity ratio between 665 and 620 nm corresponding to the peptide substrate phosphorylation. IC50 values of inhibitors were obtained by fitting the ratio of 665/620 nm vs inhibitor concentrations in a sigmoidal dose-response curve (variable slope) with a non-linear regression.

[3] = system: Kappas-299 cells (NPM-ALK); experiment: Cell growth inhibition assay (WST-8), Kappas-299; format: cell-based; conditions: read-out: Kappas-299 (nM) (NPM-ALK), 50% of cell growth inhibition (IC50), WST-8, versus DMSO control
Experimental: as §1

[4] = system: Human lymphoma cells, KARPAS 299 xenograft; experiment: KARPAS 299 xenograft tumor growth in SCID mice; format: in vivo; conditions: given orally, once daily for 3 weeks, FIG. 1
Experimental: Cpd. Nos. 5 and 6 were dissolved in a solution of 98% PEG200: 2% TPGS (Sigma).
Human lymphoma cells, KARPAS 299 were maintained at 37° C., 95% air, 5% carbon dioxide in RPMI 1640 medium supplemented with 10% Fetal Bovine Serum, 100 units/ml of penicillin and 100 units/ml of streptomycin (GIBCO™, Invitrogen Corp.) and passaged twice weekly.
Tumor cells for xenografts were washed twice in PBS, and re-suspended in an ice cold mixture of 1:1 PBS and Matrigel (BD Biosciences, Invitrogen Corp.) for a final Matrigel protein concentration of 5 mg/ml. Cells at 5×10^6 cells in 0.1 ml were injected subcutaneously (s.c.) into the flank region of each mouse. All tumors were inoculated into SCID mice (strain:236 C.B-17 SCID, Charles River).
The size of tumors growing in the mice was measured in two dimensions using calipers. Tumor volume (mm^3)=(AxB^2)/2 where A and B are the tumor length and width (in mm), respectively. During treatment, tumor volume and body weight were measured three times a week. After the treatment was stopped, tumor volume and body weight was measured at least once a week.
Tumors were not allowed to exceed 10% of the animal's total body weight. If an animal had two or more tumors the total weight of all tumors were not allowed to exceed 10% of the animal's total body weight. […]

[5] = Pharmacokinetics in SD rats; format: in vivo; conditions: 10 mg/kg, Table 8 (SD rats), PO 10 mg/kg
Experimental: Routine pharmacokinetics studies were performed for Cpd. No. 5 in SD rats and beagle dogs.

Structure (SMILES) | IC50 [1] [nM] | IC50 [2] [nM] | IC50 [3] [nM] | further results
Cc1cc(Nc2ncc(Cl)c(Nc3ccccc3S(=O)(=O)C(C)C)n2)c(OC(C)C)cc1C1=C[C@H](C2CC2)N(C)[C@H](C2CC2)C1 (racemic) [compound 16, 5-chloro-N2-(4-((cis)-2,6-dicyclopropyl-1-methyl-1,2,3,6-tetrahydropyridin-4-yl)-2-isopropoxy-5-methylphenyl)-N4-(2-(isopropylsulfonyl)phenyl)pyrimidine-2,4-diamine] | 160 | 6.3 | 97.7 | –
Cc1cc(Nc2ncc(Cl)c(Nc3ccccc3S(=O)(=O)C(C)C)n2)c(OC(C)C)cc1C1=CCN(C2COC2)CC1 [compound 6, 5-chloro-N2-(2-isopropoxy-5-methyl-4-(1-(oxetan-3-yl)-1,2,3,6-tetrahydropyridin-4-yl)phenyl)-N4-(2-(isopropylsulfonyl)phenyl)pyrimidine-2,4-diamine] | – | – | – | tumor growth in the KARPAS 299 xenograph model [4]: inhibit tumor growth
Cc1cc(Nc2ncc(Cl)c(Nc3ccccc3S(=O)(=O)C(C)C)n2)c(OC(C)C)cc1C1=C[C@H](C)N(C)[C@H](C)C1 (racemic) [compound 10, 5-chloro-N2-(2-isopropoxy-5-methyl-4-((cis)-1,2,6-trimethyl-1,2,3,6-tetrahydropyridin-4-yl)phenyl)-N4-(2-(isopropylsulfonyl)phenyl)pyrimidine-2,4-diamine] | 54.9 | 0.98 | 37.5 | –
Cc1cc(Nc2ncc(Cl)c(Nc3ccccc3S(=O)(=O)C(C)C)n2)c(OC(C)C)cc1C1=C[C@H](C)N[C@H](C)C1 (racemic) [compound 9, 5-chloro-N2-(4-((cis)-2,6-dimethyl-1,2,3,6-tetrahydropyridin-4-yl)-2-isopropoxy-5-methylphenyl)-N4-(2-(isopropylsulfonyl)phenyl)pyrimidine-2,4-diamine] | 54.9 | 1.1 | 35.9 | –
Cc1cc(Nc2ncc(Cl)c(Nc3ccccc3S(=O)(=O)C(C)C)n2)c(OC(C)C)cc1C1=CC(C)(C)N(C)C(C)(C)C1 [compound 1, 5-chloro-N2-(2-isopropoxy-5-methyl-4-(1,2,2,6,6-pentamethyl-1,2,3,6-tetrahydropyridin-4-yl)phenyl)-N4-(2-(isopropylsulfonyl)phenyl)pyrimidine-2,4-diamine] | 92 | 1.8 | 30 | –
Cc1cc(Nc2ncc(Cl)c(Nc3ccccc3S(=O)(=O)C(C)C)n2)c(OC(C)C)cc1C1=C[C@H](C2CC2)N[C@H](C2CC2)C1 (racemic) [compound 15, 5-chloro-N2-(4-((cis)-2,6-dicyclopropyl-1,2,3,6-tetrahydropyridin-4-yl)-2-isopropoxy-5-methylphenyl)-N4-(2-(isopropylsulfonyl)phenyl)pyrimidine-2,4-diamine] | 196 | 6.6 | 121 | –
Cc1cc(Nc2ncc(Cl)c(Nc3ccccc3S(=O)(=O)C(C)C)n2)c(OC(C)C)cc1C1=CCN(C2CCOCC2)CC1 [Cpd. No. 5 (mesylate), 5-chloro-N2-(2-isopropoxy-5-methyl-4-(1-(tetrahydro-2H-pyran-4-yl)-1,2,3,6-tetrahydropyridin-4-yl)phenyl)-N4-(2-(isopropylsulfonyl)phenyl)pyrimidine-2,4-diamine] | – | – | – | half-life ([5]; Sprague-Dawley, rat, in vivo, po, read-out: t1/2 (h) PO (converted)): 3.84 h; AUC0-t (ng · h/mL) PO [5]: 958 ng·h/mL; AUC0-∞ (ng · h/mL) PO [5]: 971 ng·h/mL; Cmax(ng/mL) PO [5]: 127 ng/mL; Tmax (h) PO [5]: 1.0 h
Cc1cc(Nc2ncc(Cl)c(Nc3ccccc3S(=O)(=O)C(C)C)n2)c(OC(C)C)cc1C1=CC(C)(C)NC(C)(C)C1 [compound 2, 5-chloro-N2-(2-isopropoxy-5-methyl-4-(2,2,6,6-tetramethyl-1,2,3,6-tetrahydropyridin-4-yl)phenyl)-N4-(2-(isopropylsulfonyl)phenyl)pyrimidine-2,4-diamine] | 132 | 4.4 | 39 | –
